Reference: US9617256B2 (priority 2007, dated 2017)
In brackets after ≈: the same amount, converted by molar mass. Where two headings read alike, the source gives them in different places.

Tests used:
[1] = system: AABA1060 (clinical isolate of Acinetobacter baumannii); test: MIC broth microdilution, AABA1060; assay type: cell-based; conditions: Acinetobacter baumannii, read-out: MIC AABA1060
In short: (§1)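 Minimum inhibitory concentrations followed CLSI broth microdilution guidelines: cation-adjusted Mueller-Hinton broth, 2-fold serial drug dilutions, final inoculum 3×10^5–7×10^5 CFU/mL, ambient air at 35° C. for 18-24 hours. Quality-control strains and levofloxacin monitored performance.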

AECO001 (ATCC25922) = test: MIC broth microdilution, AECO001; assay type: cell-based, E. coli; conditions: for MIC: Escherichia coli; for Ratio of MICs on AECO001 [Cpd (A = —CHCH3NH2)/Cpd (A = —C(CH3)2NH2)]: MIC of paired compound with A = —CHCH3NH2 divided by MIC of compound with A = —C(CH3)2NH2, n=2 data, pairs identical except for the A moiety
In short: as §1

APAE001 (ATCC27853) = test: MIC broth microdilution, APAE001; assay type: cell-based, P. aeruginosa; conditions: Pseudomonas aeruginosa, ATCC27853, read-out: MIC APAE001, APAE001 (ATCC27853)
In short: as §1

[2] = system: AECO063 (ATCC25922 bearing an acrAB mutation); test: microbe, parasite or virus in culture; assay type: cell-based, E. coli; conditions: Escherichia coli, ATCC25922, read-out: MIC AECO063
In short: as §1

[3] = system: APAE006 (strain of P. aeruginosa in which all efflux pumps are inactivated); test: microbe, parasite or virus in culture; assay type: cell-based; conditions: Pseudomonas aeruginosa, read-out: MIC APAE006, APAE006, all efflux pumps inactivated
In short: (§2)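 Strains were grown overnight at 35° C. on Mueller-Hinton agar, suspended to 0.5 McFarland and diluted to a final 3×10^5–7×10^5 CFU/mL. They were then exposed to 2-fold serial drug dilutions in cation-adjusted Mueller-Hinton broth and incubated 18-24 hours at 35° C.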

[4] = system: APAE006 in the presence of 8 micrograms per milliliter of polymyxin B nonapeptide; assay type: cell-based, P. aeruginosa; conditions: APAE006 with 8 micrograms per milliliter polymyxin B nonapeptide
In short: as §2

[5] = system: ASAU001 (laboratory strain of S. aureus, ATCC29213); test: MIC broth microdilution, ASAU001; assay type: cell-based; conditions: Staphylococcus aureus, ATCC29213, read-out: MIC ASAU001
In short: as §1

[6] = ATCC25922, read-out: MIC AECO001
[7] = ATCC25922, read-out: MIC AECO001 HSA AGP

| Compound | MIC [1] [µg/mL] | MIC (AECO001 (ATCC25922); [6]) [µg/mL] | MIC (AECO001 (ATCC25922); [7]) [µg/mL] | MIC (APAE001 (ATCC27853)) [µg/mL] | MIC [2] [µg/mL] | MIC [3] [µg/mL] | MIC APAE006 + PMBN [4] | MIC [5] [µg/mL] | Ratio of MICs on AECO001 [Cpd (A = —CHCH3NH2)/Cpd (A = —C(CH3)2NH2)] (AECO001 (ATCC25922)) |
| --- | --- | --- | --- | --- | --- | --- | --- | --- | --- |
| CC(C)/C=C/C#Cc1ccc(C(=O)N[C@H](C(=O)NO)[C@@H](C)N)cc1 [Example 107-5] | < 2 | < 2 | 2 to 16 (≈ 6.07 to 48.6 µM) | 2 to 16 (≈ 6.07 to 48.6 µM) | < 2 | < 2 | A (MIC's of 2.0 μg/mL or less = A) | 2 to 16 (≈ 6.07 to 48.6 µM) |  |
| CC(C)/C=C/C#Cc1ccc(C(=O)N[C@H](C(=O)NO)C(C)(C)N)cc1 [Example 107-6] | < 2 | < 2 | 2 to 16 (≈ 5.82 to 46.6 µM) | 2 to 16 (≈ 5.82 to 46.6 µM) | < 2 | < 2 | A (MIC's of 2.0 μg/mL or less = A) | 16 to 64 (≈ 46.6 to 186 µM) |  |
| CC(C)(N)[C@H](NC(=O)c1ccc(/C=C/C#Cc2ccc(CNC3CC3)cc2)cc1)C(=O)NO [Example 113-6] | < 2 | < 2 | < 2 | < 2 | < 2 | < 2 | A (MIC's of 2.0 μg/mL or less = A) | 16 to 64 (≈ 35.8 to 143 µM) |  |
| C[C@@H](O)[C@H](NC(=O)c1ccc(/C=C/C#Cc2ccc(F)cc2)cc1)C(=O)NO [Example 114-11] | 2 to 16 (≈ 5.23 to 41.8 µM) | < 2 | 16 to 64 (≈ 41.8 to 167 µM) | 16 to 64 (≈ 41.8 to 167 µM) | < 2 | < 2 | A (MIC's of 2.0 μg/mL or less = A) | 16 to 64 (≈ 41.8 to 167 µM) |  |
| C[C@@H](O)[C@H](NC(=O)c1ccc(/C=C/C#Cc2ccccc2F)cc1)C(=O)NO [Example 114-12] | < 2 | < 2 | 2 to 16 (≈ 5.23 to 41.8 µM) | 2 to 16 (≈ 5.23 to 41.8 µM) | < 2 | < 2 | A (MIC's of 2.0 μg/mL or less = A) | 16 to 64 (≈ 41.8 to 167 µM) |  |
| C[C@@H](O)[C@H](NC(=O)c1ccc(/C=C/C#Cc2cccnc2)cc1)C(=O)NO [Example 114-13] | 2 to 16 (≈ 5.47 to 43.8 µM) | < 2 | 2 to 16 (≈ 5.47 to 43.8 µM) | 2 to 16 (≈ 5.47 to 43.8 µM) | < 2 | < 2 | A (MIC's of 2.0 μg/mL or less = A) | 16 to 64 (≈ 43.8 to 175 µM) |  |
| C[C@@H](O)[C@H](NC(=O)c1ccc(/C=C/C#Cc2ccccc2)cc1)C(=O)NO [Example 114-14] | < 2 | < 2 | 2 to 16 (≈ 5.49 to 43.9 µM) | 2 to 16 (≈ 5.49 to 43.9 µM) | < 2 | < 2 | A (MIC's of 2.0 μg/mL or less = A) | 16 to 64 (≈ 43.9 to 176 µM) |  |
| C[C@@H](N)[C@H](NC(=O)c1ccc(/C=C/C#CC2CC2)cc1)C(=O)NO [Example 114-15] | 2 to 16 (≈ 6.11 to 48.9 µM) | 2 to 16 (≈ 6.11 to 48.9 µM) | 16 to 64 (≈ 48.9 to 195 µM) | < 2 | < 2 | < 2 | A (MIC's of 2.0 μg/mL or less = A) | 16 to 64 (≈ 48.9 to 195 µM) |  |
| CC(C)(N)[C@H](NC(=O)c1ccc(/C=C/C#Cc2ccccc2)cc1)C(=O)NO [Example 114-16] | < 2 | < 2 | < 2 | 2 to 16 (≈ 5.3 to 42.4 µM) | < 2 | < 2 | A (MIC's of 2.0 μg/mL or less = A) | 16 to 64 (≈ 42.4 to 170 µM) |  |
| C[C@@H](N)[C@H](NC(=O)c1ccc(/C=C/C#CC2CCCCC2)cc1)C(=O)NO [Example 114-17] | 2 to 16 (≈ 5.41 to 43.3 µM) | < 2 | 2 to 16 (≈ 5.41 to 43.3 µM) | 2 to 16 (≈ 5.41 to 43.3 µM) | < 2 | < 2 | A (MIC's of 2.0 μg/mL or less = A) | 2 to 16 (≈ 5.41 to 43.3 µM) |  |
| CC(C)(N)[C@H](NC(=O)c1ccc(/C=C/C#CC2CC2)cc1)C(=O)NO [Example 114-18] | < 2 | < 2 | 2 to 16 (≈ 5.86 to 46.9 µM) | < 2 | < 2 | < 2 | A (MIC's of 2.0 μg/mL or less = A) | 16 to 64 (≈ 46.9 to 187 µM) |  |
| CC(C)C#C/C=C/c1ccc(C(=O)N[C@H](C(=O)NO)C(C)(C)N)cc1 [Example 114-19] | < 2 | < 2 | 2 to 16 (≈ 5.82 to 46.6 µM) | < 2 | < 2 | < 2 | A (MIC's of 2.0 μg/mL or less = A) | 2 to 16 (≈ 5.82 to 46.6 µM) |  |
| CC(C)(N)[C@H](NC(=O)c1ccc(/C=C/C#CC2CCCC2)cc1)C(=O)NO [Example 114-20] | < 2 | < 2 | 2 to 16 (≈ 5.41 to 43.3 µM) | 2 to 16 (≈ 5.41 to 43.3 µM) | < 2 | < 2 | A (MIC's of 2.0 μg/mL or less = A) | 2 to 16 (≈ 5.41 to 43.3 µM) |  |
| C[C@@H](N)[C@H](NC(=O)c1ccc(C#Cc2ccc(CN3CCC(F)CC3)cc2)cc1)C(=O)NO [Example 115-1, N-((2S,3R)-3-amino-1-(hydroxyamino)-1-oxobutan-2-yl)-4-((4-((4-fluoropiperidin-1-yl)methyl)phenyl)ethynyl)benzamide] | 2 to 16 (≈ 4.42 to 35.4 µM) | < 2 | 2 to 16 (≈ 4.42 to 35.4 µM) | 2 to 16 (≈ 4.42 to 35.4 µM) | < 2 | < 2 | A (MIC's of 2.0 μg/mL or less = A) | > 64 |  |
| C[C@@H](O)[C@H](NC(=O)c1ccc(C#Cc2ccc(CNCC(F)F)cc2)cc1)C(=O)NO [Example 119-4] | 2 to 16 (≈ 4.64 to 37.1 µM) | < 2 | < 2 | < 2 | < 2 | < 2 | A (MIC's of 2.0 μg/mL or less = A) | 16 to 64 (≈ 37.1 to 148 µM) |  |
| CC(C)(O)[C@H](NC(=O)c1ccc(C#Cc2ccc(CNCC(F)F)cc2)cc1)C(=O)NO [Example 119-5] | < 2 | < 2 | < 2 | < 2 | < 2 | < 2 | A (MIC's of 2.0 μg/mL or less = A) | 16 to 64 (≈ 35.9 to 144 µM) |  |
| CC(C)(N)[C@H](NC(=O)c1ccc(C#Cc2ccc(CNC3CC3)cc2)cc1)C(=O)NO [Example 121-1, N—((S)-2-Amino-1-hydroxycarbamoyl-2-methyl-propyl)-4-(4-cyclopropylaminomethyl-phenylethynyl)-benzamide] | 2 to 16 (≈ 4.76 to 38 µM) | < 2 | < 2 | < 2 | < 2 | < 2 | A (MIC's of 2.0 μg/mL or less = A) | 16 to 64 (≈ 38 to 152 µM) | 4.0 |
| COCCNCc1ccc(C#Cc2ccc(C(=O)N[C@H](C(=O)NO)[C@@H](C)N)cc2)cc1 [Example 122-1, N-((1S,2R)-2-Amino-1-hydroxycarbamoyl-propyl)-4-{4-[(2-methoxy-ethylamino)-methyl]-phenylethynyl}-benzamide] | 16 to 64 (≈ 37.7 to 151 µM) | 2 to 16 (≈ 4.71 to 37.7 µM) | 2 to 16 (≈ 4.71 to 37.7 µM) | 2 to 16 (≈ 4.71 to 37.7 µM) | < 2 | < 2 | A (MIC's of 2.0 μg/mL or less = A) | 16 to 64 (≈ 37.7 to 151 µM) |  |
| CC(C)(C)CNCc1ccc(C#Cc2ccc(C(=O)N[C@H](C(=O)NO)C(C)(C)N)cc2)cc1 [Example 122-2] | 2 to 16 (≈ 4.44 to 35.5 µM) | < 2 | 2 to 16 (≈ 4.44 to 35.5 µM) | < 2 | < 2 | < 2 | A (MIC's of 2.0 μg/mL or less = A) | 16 to 64 (≈ 35.5 to 142 µM) |  |
| CC(C)(N)[C@H](NC(=O)c1ccc(C#Cc2ccc(CNCC(F)F)cc2)cc1)C(=O)NO [Example 122-3] | < 2 | < 2 | < 2 | < 2 | < 2 | < 2 | A (MIC's of 2.0 μg/mL or less = A) | 16 to 64 (≈ 36 to 144 µM) |  |
| CC(C)(N)[C@H](NC(=O)c1ccc(C#Cc2ccc(CN3CCS(=O)(=O)CC3)cc2)cc1)C(=O)NO [Example 122-4] | < 2 | < 2 | 2 to 16 (≈ 4.01 to 32.1 µM) | < 2 | < 2 | < 2 | A (MIC's of 2.0 μg/mL or less = A) | 16 to 64 (≈ 32.1 to 128 µM) |  |
| CC(C)(N)[C@H](NC(=O)c1ccc(C#Cc2ccc(CNCCF)cc2)cc1)C(=O)NO [Example 122-6] | 2 to 16 (≈ 4.69 to 37.5 µM) | < 2 | < 2 | < 2 | < 2 | < 2 | A (MIC's of 2.0 μg/mL or less = A) | 16 to 64 (≈ 37.5 to 150 µM) | 2.1 |
| CC(C)(O)[C@H](NC(=O)c1ccc(C#Cc2ccc(CN3CCCOCC3)cc2)cc1)C(=O)NO [Example 122-8] | 2 to 16 (≈ 4.3 to 34.4 µM) | < 2 | < 2 | < 2 | < 2 | < 2 | A (MIC's of 2.0 μg/mL or less = A) | 16 to 64 (≈ 34.4 to 137 µM) |  |
